Test results: patent publication US20090247559A1 (Exelixis, Inc., priority 2007, published 2009)

What was measured:
CK2 = CK2 (Homo sapiens, UniProt P68400); experiment: CK2 inhibition, biochemical chemiluminescence holoenzyme assay (Kinase Glo, IC50 determination); settings: Table 1 activity class; symbol given only if active; read-out: CK2 IC50 (Activity C)
Procedure, shortened: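 Holoenzyme CK2 assay; compounds pre-incubated with substrate and enzyme, then reacted 150 min at 24-27° C. Remaining ATP measured as luminescence with Kinase Glo, and IC50 derived from the signal.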

[1] = molecular target: PIM (PIM-1, PIM-2, and/or PIM-3); experiment: PIM-1, PIM-2 and PIM-3 inhibition, biochemical chemiluminescence assays (Kinase Glo, IC50 determination); settings: Table 1 activity class; PIM refers to PIM-1, PIM-2, and/or PIM-3; read-out: PIM IC50 (Activity B)

Sequence of CK2 (P68400 whole entry): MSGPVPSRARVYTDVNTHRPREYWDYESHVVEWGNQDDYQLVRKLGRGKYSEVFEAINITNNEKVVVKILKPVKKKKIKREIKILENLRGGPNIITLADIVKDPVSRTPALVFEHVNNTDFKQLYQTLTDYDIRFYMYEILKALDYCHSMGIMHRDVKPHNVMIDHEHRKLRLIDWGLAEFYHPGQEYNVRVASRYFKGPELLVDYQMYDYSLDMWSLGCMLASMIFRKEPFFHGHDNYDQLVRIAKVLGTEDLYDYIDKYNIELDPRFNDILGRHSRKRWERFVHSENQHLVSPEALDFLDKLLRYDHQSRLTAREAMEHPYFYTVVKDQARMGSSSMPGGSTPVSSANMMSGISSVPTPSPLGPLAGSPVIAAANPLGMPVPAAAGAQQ
Sequence of CK2 (P67870 whole entry partner): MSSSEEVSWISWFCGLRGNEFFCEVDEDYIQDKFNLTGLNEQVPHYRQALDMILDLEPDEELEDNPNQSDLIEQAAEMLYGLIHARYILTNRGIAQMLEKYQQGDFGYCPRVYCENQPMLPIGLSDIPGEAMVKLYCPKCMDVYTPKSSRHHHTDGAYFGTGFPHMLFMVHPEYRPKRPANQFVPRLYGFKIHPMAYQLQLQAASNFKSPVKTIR

Row | Compound | IC50 (CK2) [µM] | IC50 [1] [µM]
1 | CCC(c1nc2c(oc3ccc(Br)cc32)c(=O)[nH]1)N1CCN(C)CC1 (centres unmarked) [Compound 172, 8-bromo-2-[1-(4-methylpiperazin-1-yl)propyl][1]benzofuro[3,2-d]pyrimidin-4(3H)-one] | < 10 | < 10
2 | CN1CCC(Cc2nc3c(oc4ccc(Br)cc43)c(=O)[nH]2)CC1 [Compound 244, 8-bromo-2-[(1-methylpiperidin-4-yl)methyl][1]benzofuro[3,2-d]pyrimidin-4(3H)-one] | < 10 | < 10
3 | O=c1[nH]c(-c2ccc3c(NCC4CCNCC4)n[nH]c3c2)nc2c1oc1ccc(Br)cc12 [Compound 441, 8-bromo-2-{3-[(piperidin-4-ylmethyl)amino]-1H-indazol-6-yl}[1]benzofuro[3,2-d]pyrimidin-4(3H)-one] | < 10 | < 10
4 | COc1ccc(-c2nc3c(oc4ccc(Br)cc43)c(=O)[nH]2)c(Cl)c1OC [Compound 68, 8-bromo-2-[2-chloro-3,4-bis(methyloxy)phenyl][1]benzofuro[3,2-d]pyrimidin-4(3H)-one] | < 10 | < 10
5 | O=c1[nH]c(CN2CCN(CCO)CC2)nc2c1oc1ccc(Br)cc12 [Compound 247, 8-bromo-2-{[4-(2-hydroxyethyl)piperazin-1-yl]methyl}[1]benzofuro[3,2-d]pyrimidin-4(3H)-one] | < 10 | < 10
6 | COc1ccc(C(=O)Nc2ccc(-c3nc4c(oc5ccc(Br)cc54)c(=O)[nH]3)c(Cl)c2)cc1 [Compound 285, N-[4-(8-bromo-4-oxo-3,4-dihydro[1]benzofuro[3,2-d]pyrimidin-2-yl)-3-chlorophenyl]-4-(methyloxy)benzamide] | < 10 | < 10
7 | O=c1[nH]c(CN2CC[C@H](O)C2)nc2c1oc1ccc(CCCO)cc12 [Compound 455, 8-(3-hydroxypropyl)-2-{[(3S)-3-hydroxypyrrolidin-1-yl]methyl}[1]benzofuro[3,2-d]pyrimidin-4(3H)-one] | < 10 | < 10
8 | CSc1ccccc1-c1nc2c(oc3ccc(Br)cc32)c(=O)[nH]1 [Compound 88, 8-bromo-2-[2-(methylthio)phenyl][1]benzofuro[3,2-d]pyrimidin-4(3H)-one] | < 10 | < 10
9 | O=C(Nc1ccc(-c2nc3c(oc4ccc(Br)cc43)c(=O)[nH]2)c(Cl)c1)c1ccoc1 [Compound 341, N-[4-(8-bromo-4-oxo-3,4-dihydro[1]benzofuro[3,2-d]pyrimidin-2-yl)-3-chlorophenyl]furan-3-carboxamide] | < 10 | < 10
10 | CCN1C[C@@H]2C[C@H]1CN2Cc1nc2c(oc3ccc(Br)cc32)c(=O)[nH]1 [Compound 295, 8-bromo-2-{[(1S,4S)-5-ethyl-2,5-diazabicyclo[2.2.1]hept-2-yl]methyl}[1]benzofuro[3,2-d]pyrimidin-4(3H)-one] | < 10 | < 10
11 | O=c1[nH]c(CN2CC[C@H](O)C2)nc2c1oc1ccc(NCCc3cccc(C(F)(F)F)c3)cc12 [Compound 473, 2-{[(3S)-3-hydroxypyrrolidin-1-yl]methyl}-8-({2-[3-(trifluoromethyl)phenyl]ethyl}amino)[1]benzofuro[3,2-d]pyrimidin-4(3H)-one] | < 10 | < 10
12 | O=C(Nc1ccc(-c2nc3c(oc4ccc(Br)cc43)c(=O)[nH]2)c(Cl)c1)c1ccc(Cl)cc1 [Compound 279, N-[4-(8-bromo-4-oxo-3,4-dihydro[1]benzofuro[3,2-d]pyrimidin-2-yl)-3-chlorophenyl]-4-chlorobenzamide] | < 10 | < 10
13 | O=c1[nH]c(CNC2Cc3ccccc3C2)nc2c1oc1ccc(Br)cc12 [Compound 263, 8-bromo-2-[(2,3-dihydro-1H-inden-2-ylamino)methyl][1]benzofuro[3,2-d]pyrimidin-4(3H)-one] | < 10 | < 10
14 | O=C(C1CCN(Cc2nc3c(oc4ccc(Br)cc43)c(=O)[nH]2)C1)N1CCC(O)CC1 (centres unmarked) [Compound 272, 8-bromo-2-({3-[(4-hydroxypiperidin-1-yl)carbonyl]pyrrolidin-1-yl}methyl)[1]benzofuro[3,2-d]pyrimidin-4(3H)-one] | < 10 | < 10
15 | COc1ccc2oc3c(=O)[nH]c(-c4cc([N+](=O)[O-])ccc4Cl)nc3c2c1 [Compound 145, 2-(2-chloro-5-nitrophenyl)-8-(methyloxy)[1]benzofuro[3,2-d]pyrimidin-4(3H)-one] | < 10 | < 10
16 | O=c1[nH]c(Nc2ccccc2)nc2c1oc1ccc(Br)cc12 [Compound 180, 8-bromo-2-(phenylamino)[1]benzofuro[3,2-d]pyrimidin-4(3H)-one] | < 10 | < 10
17 | O=c1[nH]c(CNCc2ccncc2)nc2c1oc1ccc(Br)cc12 [Compound 165, 8-bromo-2-{[(pyridin-4-ylmethyl)amino]methyl}[1]benzofuro[3,2-d]pyrimidin-4(3H)-one] | < 10 | < 10
18 | O=C(Nc1ccc(-c2nc3c(oc4ccc(Br)cc43)c(=O)[nH]2)c(Cl)c1)c1cccc(Cl)c1 [Compound 280, N-[4-(8-bromo-4-oxo-3,4-dihydro[1]benzofuro[3,2-d]pyrimidin-2-yl)-3-chlorophenyl]-3-chlorobenzamide] | < 10 | < 10
19 | O=C(Nc1ccc(Cl)c(-c2nc3c(oc4ccc(Br)cc43)c(=O)[nH]2)c1)c1cncnc1 [Compound 329, N-[3-(8-bromo-4-oxo-3,4-dihydro[1]benzofuro[3,2-d]pyrimidin-2-yl)-4-chlorophenyl]pyrimidine-5-carboxamide] | < 10 | < 10
20 | O=c1[nH]c(COCC2CCNC2)nc2c1oc1ccc(Br)cc12 (centres unmarked) [Compound 288, 8-bromo-2-{[(pyrrolidin-3-ylmethyl)oxy]methyl}[1]benzofuro[3,2-d]pyrimidin-4(3H)-one] | < 10 | < 10
21 | COc1ccccc1CNCc1nc2c(oc3ccc(Br)cc32)c(=O)[nH]1 [Compound 268, 8-bromo-2-[({[2-(methyloxy)phenyl]methyl}amino)methyl][1]benzofuro[3,2-d]pyrimidin-4(3H)-one] | < 10 | < 10
22 | O=c1[nH]c(CNC2CCc3ccccc32)nc2c1oc1ccc(Br)cc12 (centres unmarked) [Compound 241, 8-bromo-2-[(2,3-dihydro-1H-inden-1-ylamino)methyl][1]benzofuro[3,2-d]pyrimidin-4(3H)-one] | < 10 | < 10
23 | O=c1[nH]c(-c2ccc(N3CCNCC3)cc2)nc2c1oc1ccc(Br)cc12 [Compound 303, 8-Bromo-2-(4-piperazin-1-ylphenyl)[1]benzofuro[3,2-d]pyrimidin-4(3H)-one] | < 10 | < 10
24 | O=C(C1CCN(Cc2nc3c(oc4ccc(Br)cc43)c(=O)[nH]2)C1)N1CCOCC1 (centres unmarked) [Compound 267, 8-bromo-2-{[3-(morpholin-4-ylcarbonyl)pyrrolidin-1-yl]methyl}[1]benzofuro[3,2-d]pyrimidin-4(3H)-one] | < 10 | < 10
25 | O=c1[nH]c(CNCc2ccco2)nc2c1oc1ccc(Br)cc12 [Compound 258, 8-bromo-2-{[(furan-2-ylmethyl)amino]methyl}[1]benzofuro[3,2-d]pyrimidin-4(3H)-one] | < 10 | < 10
